Assay results taken from paper PMC6901909, “Synergy Pattern of Short Cationic Antimicrobial Peptides Against Multidrug-Resistant Pseudomonas aeruginosa” (Frontiers in Microbiology, 2019).
In brackets after ≈: the same amount, converted by molar mass. Peptide text beside a SMILES is read from it.

What was measured:
Assay in all cases: microbe, parasite or virus in culture
Type in all cases: cell-based, Pseudomonas aeruginosa
MDR P. aeruginosa PA 919 = conditions: MDR PA 919, 18 h
Description: (§1) We selected six different P. aeruginosa isolates that were described as MDR and had been isolated from clinical and municipal waste water ([Schwartz et al., 2006]). The minimal inhibitory concentration (MIC) was determined in a microdilution assay using Mueller-Hinton (MH) broth following a previously published protocol ([Wiegand et al., 2008]). Briefly, a twofold serial dilution of the antibiotics and peptides were prepared and added to a bacteria solution, resulting in 2–5 10^5 CFU/ml. The microtiter plates (polypropylene, Corning) were incubated for 18 h at 37°C and MICs were taken visually.

P. aeruginosa PA01-wt = conditions: -wt, 18 h
Description: as §1

MDR P. aeruginosa PA253 = conditions: MDR PA253, 18 h
Description: as §1

MDR P. aeruginosa PA 910 = conditions: MDR PA 910, 18 h
Description: as §1

MIC against PA910 in μM (peptides, Table 4) (MDR P. aeruginosa PA 910) [µM]	SMILES	MIC against MDR isolates of PA, PA919 (MDR P. aeruginosa PA 919) [µM]	MIC against PA01 wt (P. aeruginosa PA01-wt)	MIC against MDR isolates of PA, PA253 (MDR P. aeruginosa PA253) [µM]
–	CC[C@H](C)[C@H](NC(=O)[C@H](CCCNC(=N)N)NC(=O)[C@H](CC(C)C)NC(=O)[C@H](CCCNC(=N)N)NC(=O)[C@@H](N)C(C)C)C(=O)N[C@@H](CCCNC(=N)N)C(=O)N[C@H](C(=O)N[C@@H](C)C(=O)N[C@H](C(=O)N[C@H](C(=O)N[C@@H](CCCNC(=N)N)C(=O)N[C@@H](C)C(N)=O)[C@@H](C)CC)C(C)C)C(C)C [Bac034] (H-VRLRIRVAVIRA-NH2)	32	32 µM (≈ 45.5 µg/mL)	64
–	CC[C@H](C)[C@H](N)C(=O)N[C@@H](CC(C)C)C(=O)N[C@@H](CCCCN)C(=O)N[C@@H](Cc1c[nH]c2ccccc12)C(=O)N[C@@H](CCCCN)C(=O)N[C@@H](CCCCN)C(=O)NCC(=O)N[C@@H](Cc1c[nH]c2ccccc12)C(=O)N[C@@H](Cc1c[nH]c2ccccc12)C(=O)N[C@@H](CCCCN)C(=O)N[C@@H](Cc1c[nH]c2ccccc12)C(=O)N[C@@H](Cc1ccccc1)C(=O)N[C@@H](CCCNC(=N)N)C(N)=O [Indopt 8] (H-ILKWKKGWWKWFR-NH2)	16	4 µM (≈ 7.45 µg/mL)	8
–	CC[C@H](C)[C@H](N)C(=O)N[C@@H](CC(C)C)C(=O)N[C@@H](CCCCN)C(=O)N[C@@H](Cc1c[nH]c2ccccc12)C(=O)N[C@@H](CCCCN)C(=O)N[C@@H](CCCNC(=N)N)C(=O)N[C@@H](CCCCN)C(=O)N[C@@H](Cc1c[nH]c2ccccc12)C(=O)N[C@@H](Cc1c[nH]c2ccccc12)C(=O)N[C@@H](CCCCN)C(=O)N[C@@H](Cc1c[nH]c2ccccc12)C(=O)N[C@@H](CCCNC(=N)N)C(=O)N[C@@H](CCCNC(=N)N)C(N)=O [Indopt 9] (H-ILKWKRKWWKWRR-NH2)	16	1 (1) μM	4
–	CC[C@H](C)[C@H](N)C(=O)N[C@@H](CC(C)C)C(=O)N[C@@H](CCCCN)C(=O)N[C@@H](Cc1c[nH]c2ccccc12)C(=O)N[C@@H](CCCCN)C(=O)N[C@H](C(=O)N[C@@H](CCCCN)C(=O)N[C@@H](Cc1c[nH]c2ccccc12)C(=O)N[C@@H](Cc1c[nH]c2ccccc12)C(=O)N[C@@H](CCCCN)C(=O)N[C@@H](Cc1c[nH]c2ccccc12)C(=O)N[C@@H](Cc1ccccc1)C(=O)N[C@@H](CCCNC(=N)N)C(N)=O)[C@@H](C)O [Indopt 11] (H-ILKWKTKWWKWFR-NH2)	16	2 µM (≈ 3.81 µg/mL)	4
–	CC[C@H](C)[C@H](NC(=O)[C@H](CCCCN)NC(=O)[C@H](CCCNC(=N)N)NC(=O)[C@H](Cc1c[nH]c2ccccc12)NC(=O)[C@H](Cc1c[nH]c2ccccc12)NC(=O)[C@@H](N)CCCNC(=N)N)C(=O)N[C@@H](Cc1c[nH]c2ccccc12)C(=O)N[C@@H](CCCCN)C(=O)N[C@@H](Cc1c[nH]c2ccccc12)C(N)=O [LOP1] (H-RWWRKIWKW-NH2)	2 to 4	2 µM (≈ 2.89 µg/mL)	8
–	CC[C@H](C)[C@H](NC(=O)[C@H](CCCNC(=N)N)NC(=O)[C@H](C)NC(=O)CNC(=O)[C@@H](N)CCCNC(=N)N)C(=O)N[C@H](C(=O)N[C@H](C(=O)N[C@H](C(=O)N[C@@H](CCCNC(=N)N)C(=O)N[C@H](C(=O)N[C@@H](C)C(=O)N[C@@H](CCCNC(=N)N)C(N)=O)C(C)C)[C@@H](C)CC)C(C)C)C(C)C [Peptide G2] (H-RGARIVVIRVAR-NH2)	16	32 µM (≈ 43.7 µg/mL)	32
–	CC[C@H](C)[C@H](NC(=O)[C@H](CCCNC(=N)N)NC(=O)[C@H](C)NC(=O)[C@H](CCCNC(=N)N)NC(=O)[C@@H](N)CCCNC(=N)N)C(=O)N[C@H](C(=O)N[C@H](C(=O)N[C@H](C(=O)N[C@@H](CCCNC(=N)N)C(=O)N[C@H](C(=O)N[C@@H](C)C(=O)N[C@@H](CCCNC(=N)N)C(N)=O)C(C)C)[C@@H](C)CC)C(C)C)C(C)C [Peptide R2] (H-RRARIVVIRVAR-NH2)	16	32 µM (≈ 46.8 µg/mL)	32
32 (≈ 49.2 µg/mL)	CC[C@H](C)[C@H](NC(=O)[C@H](CCCNC(=N)N)NC(=O)[C@H](Cc1c[nH]c2ccccc12)NC(=O)[C@H](CC(C)C)NC(=O)[C@@H](N)CCCNC(=N)N)C(=O)N[C@H](C(=O)N[C@H](C(=O)N[C@H](C(=O)N[C@@H](CCCNC(=N)N)C(=O)N[C@H](C(=O)N[C@@H](C)C(=O)N[C@@H](CCCNC(=N)N)C(N)=O)C(C)C)[C@@H](C)CC)C(C)C)C(C)C [Peptide W3] (H-RLWRIVVIRVAR-NH2)	–	–	–
16 (≈ 23.9 µg/mL)	CC[C@H](C)[C@H](NC(=O)[C@H](CCCNC(=N)N)NC(=O)[C@H](Cc1c[nH]c2ccccc12)NC(=O)[C@H](CCCNC(=N)N)NC(=O)[C@@H](N)C(C)C)C(=O)N[C@@H](CCCNC(=N)N)C(=O)N[C@H](C(=O)N[C@@H](C)C(=O)N[C@H](C(=O)N[C@H](C(=O)N[C@@H](CCCNC(=N)N)C(=O)N[C@@H](C)C(N)=O)[C@@H](C)CC)C(C)C)C(C)C [S-W3] (H-VRWRIRVAVIRA-NH2)	–	–	–
–	CC[C@H](C)[C@H](NC(=O)[C@H](CCCNC(=N)N)NC(=O)[C@H](Cc1c[nH]c2ccccc12)NC(=O)[C@H](CCCNC(=N)N)NC(=O)[C@@H](N)CCCNC(=N)N)C(=O)N[C@H](C(=O)N[C@H](C(=O)N[C@H](C(=O)N[C@@H](CCCNC(=N)N)C(=O)N[C@H](C(=O)N[C@@H](CCCNC(=N)N)C(=O)N[C@@H](CCCNC(=N)N)C(N)=O)C(C)C)[C@@H](C)CC)C(C)C)C(C)C [Sub 3] (H-RRWRIVVIRVRR-NH2)	16	8 µM (≈ 13.3 µg/mL)	8
